Assay results taken from patent US8617614B2, “Sustained release preparation for tissue regeneration therapy” (Ono Pharmaceutical Co., Ltd., priority 2006, dated 2013).

Tested on: hippocampal CA1 region nerve cells
Assay: Number of nerve cells in hippocampal CA1 region, rat 4-VO model (Nissl staining)
Type: in vivo
Settings: for number of hippocampal CA1 pyramidal nerve cells relative to the group given the medium (Test Group 3): rat 4-VO Test 1, day 42, s.c. twice daily, present drug 10, ornoprostil 0.1, PGE1•αCD 1.5 and 3 mg/kg

| Compound | number of hippocampal CA1 pyramidal nerve cells relative to the group given the medium (Test Group 3) | Number of nerve cells per unit length (count/mm) Left (L) (rat 4-VO Test 1, Test Group 6: 1.5 mg/kg (as PGE1) s.c. twice daily 42 days) |
| --- | --- | --- |
| CCCC[C@H](C)C[C@H](O)/C=C/[C@H]1[C@H](O)CC(=O)[C@@H]1CC(=O)CCCCC(=O)OC [ornoprostil, reference compound] | significant increase | – |
| CCCCC[C@H](O)/C=C/[C@H]1[C@H](O)CC(=O)[C@@H]1CCCCCCC(=O)O [PGE1•αCD, prostaglandin E1, reference compound] | significant increase | 105.7 ± 24.0 count/mm |
